# Reference: ChEMBL document CHEMBL1136816, “Synthesis and evaluation of ether and halogenated derivatives of mannopeptimycin glycopeptide antibiotics” (2003)
# How the values were obtained:
# Assay type in all cases: functional
# [1] = test system: Staphylococcus aureus; assay: In vitro minimum inhibitory concentration against Staphylococcus aureus; 1-8
# [2] = test system: Streptococcus sp.; assay: In vitro minimum inhibitory concentration against Streptococcus species; 0.5-2
# [3] = test system: Enterococcus sp.; assay: In vitro minimum inhibitory concentration against Enterococcus species; 4-32
# [4] = test system: Streptococcus sp.; assay: In vitro minimum inhibitory concentration against Streptococcus species; </=0.06-5
# [5] = test system: Enterococcus sp.; assay: In vitro minimum inhibitory concentration against Enterococcus species 2-8
# [6] = test system: Staphylococcus aureus; assay: In vitro minimum inhibitory concentration against Staphylococcus aureus; 1-2
# [7] = test system: Enterococcus sp.; assay: In vitro minimum inhibitory concentration against Enterococcus species; 0.5->64
# [8] = test system: Streptococcus sp.; assay: In vitro minimum inhibitory concentration against Streptococcus species; 0.12-0.5
# [9] = test system: Enterococcus sp.; assay: In vitro minimum inhibitory concentration against Enterococcus species; 2-4
# [10] = test system: Staphylococcus aureus; assay: In vitro minimum inhibitory concentration against Staphylococcus aureus; 0.5-2
# [11] = test system: Streptococcus sp.; assay: In vitro minimum inhibitory concentration against Streptococcus species
# [12] = test system: Streptococcus sp.; assay: In vitro minimum inhibitory concentration against Streptococcus species; 8-32
# [13] = test system: Staphylococcus aureus; assay: In vitro minimum inhibitory concentration against Staphylococcus aureus; 32-64
# [14] = test system: Enterococcus sp.; assay: In vitro minimum inhibitory concentration against Enterococcus species; 32->64
# [15] = test system: Staphylococcus aureus; assay: In vitro minimum inhibitory concentration against Staphylococcus aureus; 2-4
# [16] = test system: Streptococcus sp.; assay: In vitro minimum inhibitory concentration against Streptococcus species; </=0.06-0.12
# [17] = test system: Enterococcus sp.; assay: In vitro minimum inhibitory concentration against Enterococcus species
# [18] = test system: Staphylococcus aureus; assay: In vitro minimum inhibitory concentration against Staphylococcus aureus
# [19] = test system: Streptococcus sp.; assay: In vitro minimum inhibitory concentration against Streptococcus species; 1-16
# [20] = test system: Enterococcus sp.; assay: In vitro minimum inhibitory concentration against Enterococcus species; 16-32
# [21] = test system: Staphylococcus aureus; assay: In vitro minimum inhibitory concentration against Staphylococcus aureus; 16-32
smiles,measurement,setting,value
CCOc1cc(COCC2O[C@H](O[C@H]3[C@H](O)[C@H](O)[C@@H](Oc4ccc(C[C@H]5NC(=O)[C@H]([C@@H](C)c6ccccc6)NC(=O)CNC(=O)[C@H](CO)NC(=O)[C@@H]([C@@H](O)[C@@H]6CN=C(N)N6[C@H]6O[C@H](CO)[C@@H](O)[C@H](O)[C@@H]6O)NC(=O)[C@H]([C@@H](O)[C@@H]6CN=C(N)N6)NC5=O)cc4)O[C@@H]3CO)[C@@H](O)[C@@H](O)[C@@H]2O)ccc1OC (stereo partly specified),MIC,[1],1 µg/mL
same,MIC,[2],0.5 µg/mL
same,MIC,[3],4 µg/mL
COc1ccc2cc(COC[C@H]3O[C@H](O[C@H]4[C@H](O)[C@H](O)[C@@H](Oc5ccc(C[C@H]6NC(=O)[C@H]([C@@H](C)c7ccccc7)NC(=O)CNC(=O)[C@H](CO)NC(=O)C(C(O)[C@@H]7CN=C(N)N7[C@H]7O[C@H](CO)[C@@H](O)[C@H](O)[C@@H]7O)NC(=O)[C@H]([C@@H](O)[C@@H]7CN=C(N)N7)NC6=O)cc5)O[C@@H]4CO)[C@@H](O)[C@@H](O)[C@@H]3O)ccc2c1 (stereo partly specified),MIC,[4],≤ 0.06 µg/mL
same,MIC,[5],2 µg/mL
same,MIC,[6],1 µg/mL
CN[C@H](CC(C)C)C(=O)N[C@H]1C(=O)N[C@@H](CC(N)=O)C(=O)N[C@H]2C(=O)N[C@H]3C(=O)N[C@H](C(=O)N[C@H](C(=O)O)c4cc(O)cc(O)c4-c4cc3ccc4O)[C@H](O)c3ccc(c(Cl)c3)Oc3cc2cc(c3O[C@@H]2O[C@H](CO)[C@@H](O)[C@H](O)[C@H]2O[C@H]2C[C@](C)(N)[C@H](O)[C@H](C)O2)Oc2ccc(cc2Cl)[C@H]1O [VANCOMYCIN],MIC,[7],0.5 µg/mL
same,MIC,[8],0.12 µg/mL
C[C@@H](c1ccccc1)[C@@H]1NC(=O)CNC(=O)[C@H](CO)NC(=O)[C@@H]([C@@H](O)[C@@H]2CN=C(N)N2[C@H]2O[C@H](CO)[C@@H](O)[C@H](O)[C@@H]2O)NC(=O)[C@H]([C@@H](O)[C@@H]2CN=C(N)N2)NC(=O)[C@@H](Cc2ccc(O[C@H]3O[C@H](CO)[C@@H](O[C@H]4O[C@H](CO)[C@@H](OCc5ccc(OCc6ccccc6)cc5)[C@H](O)[C@@H]4O)[C@H](O)[C@@H]3O)cc2)NC1=O,MIC,[9],2 µg/mL
same,MIC,[10],0.5 µg/mL
same,MIC,[11],≤ 0.06 µg/mL
C[C@@H](c1ccccc1)[C@@H]1NC(=O)CNC(=O)[C@H](CO)NC(=O)[C@@H]([C@@H](O)[C@@H]2CN=C(N)N2[C@H]2O[C@H](CO)[C@@H](O)[C@H](O)[C@@H]2O)NC(=O)[C@H]([C@@H](O)[C@@H]2CN=C(N)N2)NC(=O)[C@@H](Cc2ccc(O[C@H]3O[C@H](CO)[C@@H](O[C@H]4O[C@H](COC/C=C/c5ccc(N(C)C)cc5)[C@@H](O)[C@H](O)[C@@H]4O)[C@H](O)[C@@H]3O)cc2)NC1=O,MIC,[12],8 µg/mL
same,MIC,[13],32 µg/mL
same,MIC,[14],32 µg/mL
C[C@@H](c1ccccc1)[C@@H]1NC(=O)CNC(=O)[C@H](CO)NC(=O)[C@@H]([C@@H](O)[C@@H]2CN=C(N)N2[C@H]2O[C@H](CO)[C@@H](O)[C@H](O)[C@@H]2O)NC(=O)[C@H]([C@@H](O)[C@@H]2CN=C(N)N2)NC(=O)[C@@H](Cc2ccc(O[C@H]3O[C@H](CO)[C@@H](O[C@H]4O[C@H](COCc5ccc(Oc6ccccc6)cc5)[C@@H](O)[C@H](O)[C@@H]4O)[C@H](O)[C@@H]3O)cc2)NC1=O,MIC,[9],2 µg/mL
same,MIC,[15],2 µg/mL
same,MIC,[16],≤ 0.06 µg/mL
C[C@@H](c1ccccc1)[C@@H]1NC(=O)CNC(=O)[C@H](CO)NC(=O)[C@@H]([C@@H](O)[C@@H]2CN=C(N)N2[C@H]2O[C@H](CO)[C@@H](O)[C@H](O)[C@@H]2O)NC(=O)[C@H]([C@@H](O)[C@@H]2CN=C(N)N2)NC(=O)[C@@H](Cc2ccc(O[C@H]3O[C@H](CO)[C@@H](O[C@H]4O[C@H](CO)[C@@H](O)[C@H](O)[C@@H]4O)[C@H](O)[C@@H]3O)c(I)c2)NC1=O,MIC,[11],> 128 µg/mL
same,MIC,[17],> 128 µg/mL
same,MIC,[18],> 128 µg/mL
C[C@@H](c1ccccc1)[C@@H]1NC(=O)CNC(=O)[C@H](CO)NC(=O)[C@@H]([C@@H](O)[C@@H]2CN=C(N)N2[C@H]2O[C@H](CO)[C@@H](O)[C@H](O)[C@@H]2O)NC(=O)[C@H]([C@@H](O)[C@@H]2CN=C(N)N2)NC(=O)[C@@H](Cc2ccc(O[C@H]3O[C@H](CO)[C@@H](O[C@H]4O[C@H](CO)[C@@H](OCC=C(c5ccccc5)c5ccccc5)[C@H](O)[C@@H]4O)[C@H](O)[C@@H]3O)cc2)NC1=O,MIC,[9],2 µg/mL
same,MIC,[15],2 µg/mL
same,MIC,[11],≤ 0.06 µg/mL
C[C@@H](c1ccccc1)[C@@H]1NC(=O)CNC(=O)[C@H](CO)NC(=O)[C@@H]([C@@H](O)[C@@H]2CN=C(N)N2[C@H]2O[C@H](CO)[C@@H](O)[C@H](O)[C@@H]2O)NC(=O)[C@H]([C@@H](O)[C@@H]2CN=C(N)N2)NC(=O)[C@@H](Cc2ccc(O[C@H]3O[C@H](CO)[C@@H](O[C@H]4O[C@H](CO)[C@@H](OC/C=C/c5ccc(N(C)C)cc5)[C@H](O)[C@@H]4O)[C@H](O)[C@@H]3O)cc2)NC1=O,MIC,[19],1 µg/mL
same,MIC,[20],16 µg/mL
same,MIC,[21],16 µg/mL
